US20230212171A1, “ALLOSTERIC EGFR INHIBITORS AND METHODS OF USE THEREOF” (Dana-Farber Cancer Institute, Inc., priority 2020, published 2023)
Where a name gives a salt, the structure may show the parent alone. Read-outs that look alike come from different tables or passages of the source.

Key:
[1] = target: EGFR mutant L858R/T790M Ba/F3 cells (Homo sapiens, UniProt P00533, T790M/L858R, cells depend on it); assay: Ba/F3 cell proliferation model (Cell Titer Glo), EGFR L858R/T790M; type: cell-based, murine; conditions: 72 hours
Excerpt: (§1) The EGFR mutant L858R and L858R/T790M Ba/F3 cells have been previously described (Zhou, W., et al. Nature 462, 2009, 1070-1074). All cell lines were maintained in RPMI 1640 (Cellgro; Mediatech Inc., Herndon, CA) supplemented with 10% FBS, 100 units/mL penicillin, 100 units/mL streptomycin. The EGFR I941R mutation was introduced via site directed mutagenesis using the Quick Change Site-Directed Mutagenesis kit (Stratagene; La Jolla, CA) according to the manufacturer’s instructions. All constructs were confirmed by DNA sequencing. The constructs were shuttled into the retroviral vector JP1540 using the Cre-recombination system (Agilent Technologies, Santa Clara, CA). Ba/F3 cells were then infected with retrovirus per standard protocols, as described previously (Zhou, et al, Nature 2009). Stable clones were obtained by selection in puromycin (2 µg/ml).
(§2) Growth and inhibition of growth was assessed by the Cell Titer Glo assay (Promega, Madison, WI) and was performed according to the manufacturer’s instructions. The Cell Titer Glo assay is a luminescence-based method used to determine the number of viable cells based on quantitation of the ATP present, which is directly proportional to the amount of metabolically active cells present. Ba/F3 cells of different EGFR genotypes were exposed to compounds as a single agent or in combination with 1 µg/mL cetuximab for 72 hours and the number of cells used per experiment was determined empirically as has been previously established (Zhou, et al., Nature 2009). All experimental points were set up in triplicates in 384-well plates and all experiments were repeated at least three times. […] The curves were fitted using a non-linear regression model with a sigmoidal dose response.

[2] = target: EGFR L858R/T790M (Homo sapiens, UniProt P00533, L858R/T790M); assay: HTRF-based EGFR biochemical assay (L858R/T790M); conditions: enzyme 0.02 nM, ATP 100 µM, 30 min preincubation
Protocol: (§3) EGFR biochemical activity measurements were carried out using the homogeneous time-resolved fluorescence (HTRF) assay (Cisbio). Inhibitors and DMSO normalizations were first dispensed to empty black low-volume 384-well plates (Corning) with D300 digital liquid dispenser (HP). All reactions were carried out at room temperature and solutions were added to plates with a Multidrop Combi Reagent Dispenser (ThermoFisher). The reaction mixture (10 µL final volume) contained 1 µM tyrosine kinase peptide-biotin substrate and mutant EGFR in a reaction buffer (50 mM HEPES pH 7.0, 5 mM MgCl2, 1 mM MnCl2, 0.01% BSA, 2 mM TCEP, 0.1 mM NaVO4). Enzyme concentrations were adjusted to accommodate varying kinase activities (L858R 0.1 nM, L858R/T790M 0.02 nM). Enzyme reaction solution (2× concentrations, 5 µL) was added to 384-well plates containing compounds and incubated for 30 mins. Enzyme reactions were initiated with the addition of 5 µL of ATP to a final concentration of 100 µM and reacted for 20 mins. Reactions were quenched with the addition of 10 µL of phospho-tyrosine antibody-Europium(III) cryptate (1-to-180 volume ratio) and Streptavidin-XL665 (46.7 nM) in EDTA-containing detection buffer, then incubated at room temperature for 1 hour, and read with a PHERAstar plate reader (excitation = 337 nm, emission = 620 nm and 665 nm). IC50 values were determined by inhibition curves (11-point curves from 1.0 µM to 0.130 nM or 23-point curves from 1.0 µM to 0.130 pM) in triplicate with non-linear least squares fit in GraphPad Prism 7.0d.

[3] = target: EGFR L858R (Homo sapiens, UniProt P00533, L858R); assay: HTRF-based EGFR biochemical assay (L858R); conditions: enzyme 0.1 nM, ATP 100 µM, 30 min preincubation
Protocol: as §3

[4] = target: EGFR mutant L858R Ba/F3 cells (Homo sapiens, UniProt P00533, L858R, cells depend on it); assay: Ba/F3 cell proliferation model (Cell Titer Glo), EGFR L858R; type: cell-based, murine; conditions: single agent, 72 hours; read-out: Cell ICso BaF3 EGFR L858R
Excerpt: as §1, §2

[5] = single agent, read-out: Cell IC50 BaF3 EGFR L858R/T790M

Sequence of EGFR mutant L858R/T790M Ba/F3 cells (P00533 whole entry T790M/L858R): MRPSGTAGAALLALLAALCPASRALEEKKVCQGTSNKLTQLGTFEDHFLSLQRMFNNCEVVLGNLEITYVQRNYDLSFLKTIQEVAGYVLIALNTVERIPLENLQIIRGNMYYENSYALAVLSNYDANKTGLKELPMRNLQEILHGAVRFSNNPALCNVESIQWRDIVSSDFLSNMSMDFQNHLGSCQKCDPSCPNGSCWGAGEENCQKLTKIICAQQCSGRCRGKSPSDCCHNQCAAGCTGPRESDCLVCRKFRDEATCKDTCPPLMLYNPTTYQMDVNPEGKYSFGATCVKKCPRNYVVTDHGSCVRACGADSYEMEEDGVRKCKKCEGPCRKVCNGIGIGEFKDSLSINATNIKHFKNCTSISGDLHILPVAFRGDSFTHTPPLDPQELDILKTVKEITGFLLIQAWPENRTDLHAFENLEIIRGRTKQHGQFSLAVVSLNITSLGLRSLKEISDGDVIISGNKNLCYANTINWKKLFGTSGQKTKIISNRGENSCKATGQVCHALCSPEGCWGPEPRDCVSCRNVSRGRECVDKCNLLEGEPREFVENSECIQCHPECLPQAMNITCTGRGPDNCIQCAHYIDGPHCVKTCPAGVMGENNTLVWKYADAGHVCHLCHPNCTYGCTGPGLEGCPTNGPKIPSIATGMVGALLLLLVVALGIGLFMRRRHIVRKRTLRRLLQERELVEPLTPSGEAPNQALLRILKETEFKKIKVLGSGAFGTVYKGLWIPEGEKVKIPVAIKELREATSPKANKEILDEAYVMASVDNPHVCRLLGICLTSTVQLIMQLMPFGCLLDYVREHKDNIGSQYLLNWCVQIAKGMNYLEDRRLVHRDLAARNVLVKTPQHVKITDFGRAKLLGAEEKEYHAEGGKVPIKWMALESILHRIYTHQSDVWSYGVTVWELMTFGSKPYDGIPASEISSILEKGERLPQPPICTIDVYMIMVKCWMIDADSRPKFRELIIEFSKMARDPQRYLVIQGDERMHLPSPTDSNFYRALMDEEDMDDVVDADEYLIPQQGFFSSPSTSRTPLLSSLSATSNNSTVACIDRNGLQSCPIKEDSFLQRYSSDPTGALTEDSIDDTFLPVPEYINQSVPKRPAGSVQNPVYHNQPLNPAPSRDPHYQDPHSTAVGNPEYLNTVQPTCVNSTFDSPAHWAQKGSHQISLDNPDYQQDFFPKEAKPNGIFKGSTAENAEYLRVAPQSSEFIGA
Sequence of EGFR L858R/T790M (P00533 25-1210 T790M/L858R): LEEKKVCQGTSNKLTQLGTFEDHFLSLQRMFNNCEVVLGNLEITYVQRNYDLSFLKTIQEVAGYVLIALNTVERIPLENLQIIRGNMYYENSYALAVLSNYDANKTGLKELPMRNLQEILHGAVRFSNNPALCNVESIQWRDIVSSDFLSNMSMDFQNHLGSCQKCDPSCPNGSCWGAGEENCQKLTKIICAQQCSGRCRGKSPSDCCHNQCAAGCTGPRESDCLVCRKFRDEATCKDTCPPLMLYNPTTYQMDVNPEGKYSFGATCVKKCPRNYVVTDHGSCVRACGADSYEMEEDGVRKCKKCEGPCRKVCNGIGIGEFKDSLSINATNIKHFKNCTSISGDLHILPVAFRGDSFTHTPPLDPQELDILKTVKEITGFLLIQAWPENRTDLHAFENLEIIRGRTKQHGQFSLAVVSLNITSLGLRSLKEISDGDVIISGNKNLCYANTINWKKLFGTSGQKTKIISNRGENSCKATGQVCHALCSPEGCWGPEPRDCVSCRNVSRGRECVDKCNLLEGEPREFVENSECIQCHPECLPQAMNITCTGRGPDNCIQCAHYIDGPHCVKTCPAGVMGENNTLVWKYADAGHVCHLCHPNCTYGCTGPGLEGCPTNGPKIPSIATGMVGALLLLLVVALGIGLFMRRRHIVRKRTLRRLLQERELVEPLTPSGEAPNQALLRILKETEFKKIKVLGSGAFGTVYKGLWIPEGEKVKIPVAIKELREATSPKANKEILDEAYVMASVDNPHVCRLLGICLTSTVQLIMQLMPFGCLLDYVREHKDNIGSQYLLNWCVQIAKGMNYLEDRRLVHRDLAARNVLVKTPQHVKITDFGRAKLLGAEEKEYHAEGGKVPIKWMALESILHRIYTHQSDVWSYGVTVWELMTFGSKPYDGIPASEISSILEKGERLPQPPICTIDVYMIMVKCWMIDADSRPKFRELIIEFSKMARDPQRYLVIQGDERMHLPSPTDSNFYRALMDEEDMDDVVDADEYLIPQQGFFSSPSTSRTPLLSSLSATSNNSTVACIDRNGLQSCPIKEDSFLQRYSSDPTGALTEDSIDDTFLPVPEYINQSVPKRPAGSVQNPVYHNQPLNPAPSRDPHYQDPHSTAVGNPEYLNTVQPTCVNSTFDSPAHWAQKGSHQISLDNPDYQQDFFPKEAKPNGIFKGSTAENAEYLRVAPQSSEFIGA
Sequence of EGFR mutant L858R Ba/F3 cells (P00533 whole entry L858R): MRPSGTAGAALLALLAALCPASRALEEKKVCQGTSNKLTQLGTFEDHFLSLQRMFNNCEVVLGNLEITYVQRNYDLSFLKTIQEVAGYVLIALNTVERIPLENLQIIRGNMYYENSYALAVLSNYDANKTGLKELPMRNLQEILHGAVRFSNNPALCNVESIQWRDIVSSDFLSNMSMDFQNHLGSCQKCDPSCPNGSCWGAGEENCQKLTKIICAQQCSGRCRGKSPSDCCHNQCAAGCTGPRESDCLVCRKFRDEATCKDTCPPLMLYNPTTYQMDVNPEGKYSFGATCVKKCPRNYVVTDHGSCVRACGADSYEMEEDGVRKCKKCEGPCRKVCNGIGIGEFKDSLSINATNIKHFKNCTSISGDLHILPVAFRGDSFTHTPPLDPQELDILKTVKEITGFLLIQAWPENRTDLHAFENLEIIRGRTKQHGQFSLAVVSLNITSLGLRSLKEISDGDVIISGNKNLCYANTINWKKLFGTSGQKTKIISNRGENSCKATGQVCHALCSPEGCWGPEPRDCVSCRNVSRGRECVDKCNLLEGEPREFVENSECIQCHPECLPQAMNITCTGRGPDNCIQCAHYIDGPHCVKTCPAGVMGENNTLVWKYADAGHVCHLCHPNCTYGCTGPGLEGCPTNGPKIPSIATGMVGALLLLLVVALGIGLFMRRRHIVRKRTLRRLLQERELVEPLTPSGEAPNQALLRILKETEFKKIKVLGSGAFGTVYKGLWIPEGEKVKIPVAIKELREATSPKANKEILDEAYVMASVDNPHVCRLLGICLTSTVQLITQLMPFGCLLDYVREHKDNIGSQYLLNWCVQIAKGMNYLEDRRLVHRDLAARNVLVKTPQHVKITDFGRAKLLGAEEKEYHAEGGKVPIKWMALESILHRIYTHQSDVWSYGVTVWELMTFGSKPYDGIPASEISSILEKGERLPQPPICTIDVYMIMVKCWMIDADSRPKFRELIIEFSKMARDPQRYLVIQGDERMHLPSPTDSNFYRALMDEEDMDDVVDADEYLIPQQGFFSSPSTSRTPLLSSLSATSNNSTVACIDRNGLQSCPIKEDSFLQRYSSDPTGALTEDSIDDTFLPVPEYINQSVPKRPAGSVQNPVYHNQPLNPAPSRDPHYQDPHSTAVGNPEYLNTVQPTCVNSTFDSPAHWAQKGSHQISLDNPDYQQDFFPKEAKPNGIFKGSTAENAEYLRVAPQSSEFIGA
Sequence of EGFR L858R (P00533 25-1210 L858R): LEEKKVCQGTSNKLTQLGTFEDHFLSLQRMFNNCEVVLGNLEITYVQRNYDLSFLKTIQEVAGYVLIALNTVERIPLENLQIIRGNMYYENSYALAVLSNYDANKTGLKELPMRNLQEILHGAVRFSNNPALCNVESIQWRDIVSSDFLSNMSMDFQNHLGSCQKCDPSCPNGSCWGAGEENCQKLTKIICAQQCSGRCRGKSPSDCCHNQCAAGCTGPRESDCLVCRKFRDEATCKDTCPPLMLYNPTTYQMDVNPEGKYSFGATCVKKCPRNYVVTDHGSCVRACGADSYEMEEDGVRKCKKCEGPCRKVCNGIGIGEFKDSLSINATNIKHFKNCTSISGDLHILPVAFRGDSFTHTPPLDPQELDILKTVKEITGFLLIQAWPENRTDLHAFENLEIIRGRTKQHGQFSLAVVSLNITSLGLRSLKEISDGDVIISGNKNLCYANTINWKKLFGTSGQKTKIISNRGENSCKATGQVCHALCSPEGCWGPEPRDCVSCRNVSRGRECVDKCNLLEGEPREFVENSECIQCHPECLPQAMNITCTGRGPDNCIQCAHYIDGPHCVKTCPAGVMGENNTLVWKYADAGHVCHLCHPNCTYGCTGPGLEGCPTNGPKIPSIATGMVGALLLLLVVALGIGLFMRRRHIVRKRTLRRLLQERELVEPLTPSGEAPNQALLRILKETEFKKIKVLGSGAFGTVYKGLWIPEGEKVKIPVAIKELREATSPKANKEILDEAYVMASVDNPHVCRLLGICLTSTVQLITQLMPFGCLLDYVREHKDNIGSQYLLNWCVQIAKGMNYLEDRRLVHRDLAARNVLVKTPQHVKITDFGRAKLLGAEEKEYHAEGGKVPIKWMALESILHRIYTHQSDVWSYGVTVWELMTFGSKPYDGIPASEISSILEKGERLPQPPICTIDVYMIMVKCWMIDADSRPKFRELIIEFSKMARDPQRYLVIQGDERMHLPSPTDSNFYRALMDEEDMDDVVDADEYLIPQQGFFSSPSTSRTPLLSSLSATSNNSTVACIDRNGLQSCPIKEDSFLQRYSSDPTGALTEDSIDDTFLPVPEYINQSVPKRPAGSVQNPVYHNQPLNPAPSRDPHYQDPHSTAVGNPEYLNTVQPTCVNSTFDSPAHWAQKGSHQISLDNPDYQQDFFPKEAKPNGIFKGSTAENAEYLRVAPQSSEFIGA

Row | SMILES | GI50 [1, 5] [nM] | IC50 [2] [nM] | IC50 [3] [nM] | GI50 [4] [nM] | GI50 ([1]; in combination with 1 µg/mL cetuximab, read-out: Cell IC50 BaF3 EGFR L858R/T790M (+ cetux.)) [nM]
1 | CN1CCC(c2ccc(-c3cc4ccn([C@H](c5nc6ccccc6[nH]5)c5cc(F)ccc5O)c(=O)c4s3)cc2)CC1 (single isomer, unassigned) [Compound 016] | – | 17 | 41 | – | –
2 | CN1CCC(c2ccc(-c3cc4c(=O)n(C(C(=O)Nc5nccs5)c5ccccc5)cnn4c3)cc2)CC1 (stereo not drawn) [Compound 001, 2-(6-(4-(1-Methylpiperidin-4-Yl)Phenyl)-4-Oxopyrrolo[2,1-f][1,2,4]-Triazin-3(4H)-Yl)-2-Phenyl-N-(Thiazol-2-yl)Acetamide;Hydrochloride] | 2300 | 1 | 5 | – | 90
3 | CN1CCC(c2ccc(-c3cc4c(=O)n(C(c5ccccc5)c5nc6ccccc6[nH]5)cnn4c3)cc2)CC1 (stereo not drawn) [Compound 002, 3-((1H-Benzo[d]Imidazol-2-Yl)(Phenyl)Methyl)-6-(4-(1-Methylpiperidin-4-Yl)Phenyl)Pyrrolo [2,1-f][1,2,4]Triazin-4(3H)-One;Hydrochloride] | 2630 | > 100 | > 100 | 2240 | –
4 | CN1CCC(c2ccc(-c3cc4c(=O)n(C(C(=O)Nc5nccs5)c5ccccc5)ccc4s3)cc2)CC1 (stereo not drawn) [Compound 005, 2-[2-[4-(1-methyl-4-piperidyl)phenyl]-4-oxo-thieno[3,2-c]pyridin-5-yl]-2-phenyl-N-thiazol-2-yi-acetamide] | 2040 | 0.8 | 3 | 1550 | –
5 | CN1CCC(c2ccc(-c3cc4ccn(C(C(=O)Nc5nccs5)c5ccccc5)c(=O)c4s3)cc2)CC1 (stereo not drawn) [Compound 007, 2-[2-[4-(1-methyl-4-piperidyl)phenyl]-7-oxo-thieno[2,3-c]pyridin-6-yl]-2-phenyl-N-thiazol-2-yl-acetamide;hydrochloride] | 570 | 0.6 | 3 | 360 | –
6 | CN1CCC(c2ccc(-c3cc4ccn(C(c5ccccc5)c5nc6ccccc6[nH]5)c(=O)c4s3)cc2)CC1 (stereo not drawn) [Compound 008, 6-[1H-benzimidazol-2-yl(phenyl)methyl]-2-[4-(1-methyl-4-piperidyl)phenyl]thieno[2,3-c]pyridin-7-one;hydrochloride] | 1670 | 29 | 27 | 1870 | –
7 | CN1CCC(c2ccc(-c3cc4ccn(C(c5nc6ccccc6[nH]5)c5cc(F)ccc5O)c(=O)c4s3)cc2)CC1 (stereo not drawn) [Compound 009, 6-[1H-benzimidazol-2-yl-(5-fluoro-2-hydroxy-phenyl)methyl]-2-[4-(1-methyl-4-piperidyl)phenyl]thieno[2,3-c]pyridin-7-one;dihydrochloride] | 20 | 0.6 | 2 | 70 | –
8 | CN1CCC(c2ccc(-c3ccc4c(c3)N(C)C(=O)N(C(c3nc5ccccc5[nH]3)c3cc(F)ccc3O)C4)cc2)CC1 (stereo not drawn) [Compound 017, 3-[1H-benzimidazol-2-yl-(5-fluoro-2-hydroxy-phenyl)methyl]-1-methyl-7-[4-(1-methyl-4-piperidyl)phenyl]-4H-quinazolin-2-one;dihydrochloride] | 1090 | – | – | – | –
9 | CN1CCC(c2ccc(-c3cc4c(F)cn(C(c5nc6ccccc6[nH]5)c5cc(F)ccc5O)c(=O)c4s3)cc2)CC1 (stereo not drawn) [Compound 020, 6-((1H-Benzo[d]Imidazol-2-Yl)(5-Fluoro-2-Hydroxyphenyl)Methyl)-4-Fluoro-2-(4-(1-methylpiperidin-4-Yl)Phenyl)Thieno[2,3-c]Pyridin-7(6H)-One] | – | 0.2 | 0.2 | – | –
10 | CN1CCC(c2ccc(-c3nc4c(s3)C(=O)N(C(c3nc5ccccc5[nH]3)c3cc(F)ccc3O)CC4)cc2)CC1 (stereo not drawn) [Compound 022, 5-((1H-Benzo[d]imidazol-2-yl)(5-fluoro-2-hydroxyphenyl)methyl)-2-(4-(1-methylpiperidin-4-yl)phenyl)-6,7-dihydrothiazolo[5,4-c]pyridin-4(5H)-one] | – | 11 | 12 | – | –
11 | CN1CCC(c2ccc(-c3cc4ccn(C(c5ccccc5)c5cc6ccccc6[nH]5)c(=O)c4s3)cc2)CC1 (stereo not drawn) [Compound 025, 6-((1H-Indol-2-Yl)(Phenyl)Methyl)-2-(4-(1-Methylpiperidin-4-Yl)Phenyl)Thieno[2,3-c]Pyridin-7(6H)-One] | – | 7 | 9 | – | –

The next lines start with the values.

Row | GI50 [1, 5] [nM] | IC50 [2] [nM] | IC50 [3] [nM] | GI50 [4] [nM] | GI50 ([1]; in combination with 1 µg/mL cetuximab, read-out: Cell IC50 BaF3 EGFR L858R/T790M (+ cetux.)) [nM] | SMILES
12 | 10 | 0.2 | 0.9 | 40 | – | CN1CCC(c2ccc(-c3cc4ccn([C@@H](c5nc6ccccc6[nH]5)c5cc(F)ccc5O)c(=O)c4s3)cc2)CC1 (single isomer, unassigned) [Compound 015]
13 | 890 | 29 | 31 | 850 | – | CN1CCC(c2ccc(-c3cc4ncn(C(C(=O)Nc5nccs5)c5ccccc5)c(=O)c4s3)cc2)CC1 (stereo not drawn) [Compound 003, 2-(6-(4-(1-Methylpiperidin-4-Yl)Phenyl)-4-Oxothieno[3,2-d)Pyrimidin-3(4H)-Yl)-2-Phenyl-N-(Thiazol-2-Yl)Acetamide]
14 | 3680 | > 100 | > 100 | 4570 | – | CN1CCC(c2ccc(-c3cc4ncn(C(c5ccccc5)c5nc6ccccc6[nH]5)c(=O)c4s3)cc2)CC1 (stereo not drawn) [Compound 004, 3-((1H-benzo[d]imidazol-2-yl)(phenyl)methyl)-6-(4-(1-methylpiperidin-4-yl)phenyl)thieno[3,2-d]pyrimidin-4(3H)-one]
15 | 3550 | 19 | 21 | 3130 | – | CN1CCC(c2ccc(-c3cc4c(=O)n(C(c5ccccc5)c5nc6ccccc6[nH]5)ccc4s3)cc2)CC1 (stereo not drawn) [Compound 006]
16 | – | 0.5 | 0.7 | – | – | CN1CCC(c2ccc(-c3cc4c(F)cn(C(C(=O)Nc5nccs5)c5cc(F)ccc5O)c(=O)c4s3)cc2)CC1 (stereo not drawn) [Compound 019, 2-(4-Fluoro-2-(4-(1-Methylpiperidin-4-Yl)Phenyl)-7-Oxothieno[2,3-c]Pyridin-6(7H)-Yl)-2-(5-Fluoro-2-Hydroxyphenyl)-N-(Thiazol-2-Yl)Acetamide]
17 | – | 0.6 | 2 | – | – | CN1CCC(c2ccc(-c3nc4c(s3)C(=O)N(C(C(=O)Nc3nccs3)c3cc(F)ccc3O)CC4)cc2)CC1 (stereo not drawn) [Compound 021, 2-(5-Fluoro-2-hydroxyphenyl)-2-(2-(4-(1-methylpiperidin-4-yl)phenyl)-4-oxo-6,7-dihydrothiazolo[5,4-c]pyridin-5(4H)-yl)-N-(thiazol-2-yl)acetamide]
18 | – | 3 | 7 | – | – | CN1CCC(c2ccc(-c3nc4ccn(C(c5nc6ccccc6[nH]5)c5cc(F)ccc5O)c(=O)c4s3)cc2)CC1 (stereo not drawn) [Compound 023, 5-((1H-Benzo[d]imidazol-2-yl)(5-fluoro-2-hydroxyphenyl)methyl)-2-(4-(1-methylpiperidin-4-yl)phenyl)thiazolo[5,4-c]pyridin-4(5H)-one]
19 | – | 0.7 | 2 | – | – | [2H]C(c1nc2ccccc2[nH]1)(c1cc(F)ccc1O)n1ccc2cc(-c3ccc(C4CCN(C)CC4)cc3)sc2c1=O (stereo not drawn) [Compound 024, 6-((1H-Benzo[d]Imidazol-2-yl)(5-Fluoro-2-Hydroxyphenyl)Methyl-d)-2-(4-(1-Methylpiperidin-4-Yl)Phenyl)Thieno[2,3-c]Pyridin-7(6H)-One]
